Data reported in patent publication US20220402914A1, “Tryptoline-Based Benzothiazoles and their use as Antibiotics and Antibiotic Resistance-Modifying Agents” (The Regents of the University of Colorado, a body corporate, priority 2019, published 2022).
Values after ≈ are worked out from the molar mass of the structure shown. Values joined by “and” are separate entries in the source; they are usually repeats but may differ in a detail not shown here. Equal entries are not always repeated.

Experiments:
HeLa cells = assay: GI50 against HeLa cells, Cell Titer Glo viability assay; format: cell-based, human; conditions: 24 h
Procedure: (§1) RMA activity of the analogues was tested by assessing their abilities to sensitize MRSA to the antibiotic cefazolin (a first-generation cephalosporin). The well characterized strain MRSA ATCC BAA-44 was tested as previously described. […] The minimal inhibitory concentration (MIC), or the lowest concentration at which S. aureus is considered susceptible to an antibacterial, was determined by the standard broth microdilution method detailed in the CLSI handbook. RMA activity was compared by the ratio of MIC/MRC. The half growth inhibitory concentration (GI50) of each analogue against HeLa cells was determined as previously described. […] The luminescence of each sample was recorded in an Envision Multilabel Plate Reader (Perkin Elmer). Results of MICs and MRCs were confirmed by testing in triplicate. The GI50 assay was performed in duplicate.

MRSA ATCC BAA-44 = assay: Minimal inhibitory concentration (MIC), standard broth microdilution; format: cell-based, Staphylococcus aureus; conditions: for MIC: Staphylococcus aureus, MRSA BAA-44 strain, read-out: MIC; for MIC (in words): MRSA BAA-44; for concentration that inhibited the growth of MRSA BAA-44 on average (antibiotic controls): antibiotic alone
Procedure: as §1

MIC (MRSA ATCC BAA-44) [µg/mL]	MIC (in words) (MRSA ATCC BAA-44)	SMILES	GI50 (HeLa cells) [µg/mL]	concentration that inhibited the growth of MRSA BAA-44 on average (antibiotic controls) (MRSA ATCC BAA-44)
16		Cl.Nc1cc(C(F)(F)F)c2nc(N3CCc4c([nH]c5ccc(Cl)cc45)C3)sc2c1 [Compound 4ah, 2-(6-Chloro-1,3,4,9-tetrahydro-2H-pyrido[3,4-b]indol-2-yl)-4-(trifluoromethyl)-1,3-benzothiazol-6-aminium chloride]	32	
2 (≈ 4.89 µM)	excellent MICs	Clc1cc(Cl)c2nc(N3CCc4c([nH]c5ccc(Cl)cc45)C3)sc2c1 [Compound 4x, 6-Chloro-2-(4,6-dichloro-1,3-benzothiazol-2-yl)-2,3,4,9-tetrahydro-1H-pyrido[3,4-b]indole]	16.1 (≈ 39.4 µM)	
> 32		Clc1ccc2[nH]c3c(c2c1)CCN(c1nc2c(Cl)cc(Br)cc2s1)C3 [Compound 4ac, 2-(6-Bromo-4-chloro-1,3-benzothiazol-2-yl)-6-chloro-2,3,4,9-tetrahydro-1H-pyrido[3,4-b]indole]	22 (≈ 48.5 µM)	
		CO/N=C(\C(=O)N[C@@H]1C(=O)N2C(C(=O)O)=C(COC(N)=O)CS[C@H]12)c1ccco1 [Cefuroxime, reference compound]		128 µg/mL and 256 µg/mL
> 16		Clc1ccc2nc(N3CCc4c([nH]c5c(Cl)cccc45)C3)sc2c1 [Compound 4h, 8-Chloro-2-(6-chloro-1,3-benzothiazol-2-yl)-2,3,4,9-tetrahydro-1H-pyrido[3,4-b]indole]		
	excellent MICs	Cl.NCCNc1cc(C(F)(F)F)c2nc(N3CCc4c([nH]c5ccc(Cl)cc45)C3)sc2c1 [Compound 4aj, N1-(2-(6-chloro-1,3,4,9-tetrahydro-2H-pyrido[3,4-b]indol-2-yl)-4-(trifluoromethyl)benzo[d]thiazol-6-yl)ethane-1,2-diamine hydrochloride]	7.4	
4 (≈ 9.55 µM)		Clc1ccc2nc(N3CCc4c([nH]c5ccc(Br)cc45)C3)sc2c1 [Compound 4j, 6-Bromo-2-(6-chloro-1,3-benzothiazol-2-yl)-2,3,4,9-tetrahydro-1H-pyrido[3,4-b]indole]		
		Cl.NCCSCC1CN(c2nc3ccc(Cl)cc3s2)Cc2[nH]c3ccc(Cl)cc3c21 (racemic) [Compound 12a, 2-(((6-Chloro-2-(6-chlorobenzo[d]thiazol-2-yl)-2,3,4,9-tetrahydro-1H-pyrido[3,4-b]indol-4-yl)methyl)thio)ethan-1-amine hydrochloride]	3.8	
> 32		Oc1cc(Cl)c2nc(N3CCc4c([nH]c5ccc(Cl)cc45)C3)sc2c1 [Compound 4aa, 4-Chloro-2-(6-chloro-1,3,4,9-tetrahydro-2H-pyrido[3,4-b]indol-2-yl)-1,3-benzothiazol-6-ol]	5.5 (≈ 14.1 µM)	
		COCOCC1CN(c2nc3ccc(Cl)cc3s2)Cc2[nH]c3ccc(Cl)cc3c21 (racemic) [Compound 11, 6-Chloro-2-(6-chloro-4-((methoxymethoxy)methyl)-1,3,4,9-tetrahydro-2H-pyrido[3,4-b]indol-2-yl)benzo[d]thiazole]	7.0 (≈ 15.6 µM)	
2 (≈ 4.64 µM)		CN(C)CC1CN(c2nc3ccc(Cl)cc3s2)Cc2[nH]c3ccc(Cl)cc3c21 (racemic) [Compound 12c, 1-(6-Chloro-2-(6-chlorobenzo[d]thiazol-2-yl)-2,3,4,9-tetrahydro-1H-pyrido[3,4-b]indol-4-yl)-N,N-Dimethylmethanamine]	5.2 (≈ 12.1 µM)	
		Cc1nnc(SCC2=C(C(=O)O)N3C(=O)[C@@H](NC(=O)Cn4cnnn4)[C@H]3SC2)s1 [Cefazolin, reference compound]		128 µg/mL and 256 µg/mL
8		C[N+](C)(C)CC1CN(c2nc3ccc(Cl)cc3s2)Cc2[nH]c3ccc(Cl)cc3c21.[I-] (racemic) [Compound 12d, 1-(6-Chloro-2-(6-chlorobenzo[d]thiazol-2-yl)-2,3,4,9-tetrahydro-1H-pyrido[3,4-b]indol-4-yl)-N,N,N-trimethylmethanaminium iodide]		
4 (≈ 8.22 µM)		FC(F)(F)c1cc(Br)cc2sc(N3CCc4c([nH]c5ccc(Cl)cc45)C3)nc12 [Compound 4ag, 2-[6-Bromo-4-(trifluoromethyl)-1,3-benzothiazol-2-yl]-6-chloro-2,3,4,9-tetrahydro-1H-pyrido[3,4-b]indole]	5.9 (≈ 12.1 µM)	
4 (≈ 10.6 µM)		S=C(Nc1ccc(Cl)cc1)N1CCc2c([nH]c3ccc(Cl)cc23)C1 [Compound 5a, 6-Chloro-N-(4-chlorophenyl)-1,3,4,9-tetrahydro-2H-pyrido[3,4-b]indole-2-carbothioamide]		
2 (≈ 4.88 µM)		FC(F)(F)c1cccc(NC(=S)N2CCc3c([nH]c4ccc(Cl)cc34)C2)c1 [Compound 5c, 6-Chloro-N-[3-(trifluoromethyl)phenyl]-1,3,4,9-tetrahydro-2H-pyrido[3,4-b]indole-2-carbothioamide]		
		OCC1CN(c2nc3ccc(Cl)cc3s2)Cc2[nH]c3ccc(Cl)cc3c21 (racemic) [Compound 10, (6-Chloro-2-(6-chlorobenzo[d]thiazol-2-yl)-2,3,4,9-tetrahydro-1H-pyrido[3,4-b]indol-4-yl)methanol]	10.8 (≈ 26.7 µM)	
	excellent MICs	Cl.NCC(=O)Nc1cc(Cl)c2nc(N3CCc4c([nH]c5ccc(Cl)cc45)C3)sc2c1 [Compound 4ae, 2-amino-N-(4-chloro-2-(6-chloro-1,3,4,9-tetrahydro-2H-pyrido[3,4-b]indol-2-yl)benzo[d]thiazol-6-yl)acetamide hydrochloride]	14.8	
		NCC1CN(c2nc3ccc(Cl)cc3s2)Cc2[nH]c3ccc(Cl)cc3c21 (racemic) [Compound 12b, (6-Chloro-2-(6-chlorobenzo[d]thiazol-2-yl)-2,3,4,9-tetrahydro-1H-pyrido[3,4-b]indol-4-yl)methanamine]	1.5 (≈ 3.72 µM)	
4 (≈ 9.29 µM)		N=CNCC1CN(c2nc3ccc(Cl)cc3s2)Cc2[nH]c3ccc(Cl)cc3c21 (racemic) [Compound 12f, N-((6-chloro-2-(6-chlorobenzo[d]thiazol-2-yl)-2,3,4,9-tetrahydro-1H-pyrido[3,4-b]indol-4-yl)methyl)formimidamide]	3.8 (≈ 8.83 µM)	
> 16		Clc1ccc2nc(N3CCc4c([nH]c5cccc(Cl)c45)C3)sc2c1 [Compound 4f, 5-Chloro-2-(6-chloro-1,3-benzothiazol-2-yl)-2,3,4,9-tetrahydro-1H-pyrido[3,4-b]indole]		
8 (≈ 18.5 µM)		NCCOc1cc(Cl)c2nc(N3CCc4c([nH]c5ccc(Cl)cc45)C3)sc2c1 [Compound 4ab, 2-((4-Chloro-2-(6-chloro-1,3,4,9-tetrahydro-2H-pyrido[3,4-b]indol-2-yl)benzo[d]thiazol-6-yl)oxy)ethan-1-amine]		
		NCCNCC1CN(c2nc3ccc(Cl)cc3s2)Cc2[nH]c3ccc(Cl)cc3c21 (racemic) [Compound 12e, N1-((6-chloro-2-(6-chlorobenzo[d]thiazol-2-yl)-2,3,4,9-tetrahydro-1H-pyrido[3,4-b]indol-4-yl)methyl)ethane-1,2-diamine]	2.4 (≈ 5.38 µM)	
2 (≈ 4.51 µM)	excellent MICs	Clc1ccc2[nH]c3c(c2c1)CCN(c1nc2c(Cl)c(Cl)c(Cl)cc2s1)C3 [Compound 4y, 6-Chloro-2-(4,5,6-trichloro-1,3-benzothiazol-2-yl)-2,3,4,9-tetrahydro-1H-pyrido[3,4-b]indole]	11.7 (≈ 26.4 µM)	
